Results on 21 compounds are retold here after patent US20190388425A1, “SUBSTITUTED IMIDAZOPYRIDINPYRIMIDINES” (Bayer Pharma Aktiengesellschaft, priority 2017, published 2019).

Each structure is given as a SMILES string.

The target in this experiment is T1, human full-length MKNK1 (Homo sapiens, UniProt Q9BUB5, T385D).
T1 construct: GST (N); purchased Carna Biosciences 02-145; host or cells: insect cells (baculovirus expression system)
T1 sequence (Q9BUB5 1-424 isoform Q9BUB5-2 T344D): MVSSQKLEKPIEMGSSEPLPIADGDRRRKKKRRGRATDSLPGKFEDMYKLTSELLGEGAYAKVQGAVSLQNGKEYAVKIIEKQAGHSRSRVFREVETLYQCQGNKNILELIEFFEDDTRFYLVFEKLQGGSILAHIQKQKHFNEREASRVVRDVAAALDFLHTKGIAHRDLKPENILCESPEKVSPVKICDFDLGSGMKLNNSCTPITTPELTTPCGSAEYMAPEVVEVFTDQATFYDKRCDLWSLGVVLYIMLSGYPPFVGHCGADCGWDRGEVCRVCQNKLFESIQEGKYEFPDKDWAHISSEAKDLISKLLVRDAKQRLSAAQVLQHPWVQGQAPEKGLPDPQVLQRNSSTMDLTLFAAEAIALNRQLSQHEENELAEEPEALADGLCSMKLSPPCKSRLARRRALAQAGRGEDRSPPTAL
The experiment can be described thus: MKNK1 kinase high ATP assay (TR-FRET). The experiment is classed as biochemical. To be noted: TR-FRET, 2 mM ATP (high ATP), 15 min preincubation with enzyme, 30 min reaction at 22° C.; read-out: MKNK1 IC50. The procedure, abridged:
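Full-length human MKNK1 (T385D) preincubated 15 min at 22 °C with compound in HEPES pH 7.5/MgCl2/DTT buffer; reaction with 2 mM ATP (final) and 0.06 μM biotinylated peptide (final), 30 min at 22 °C.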
In general terms: In TR-FRET formats the signal depends on donor and acceptor labels being close together.
On to `Cc1cc(Nc2ncnc3sc4c(c23)CC[C@H](C(=O)N2CC(C#N)C2)C4)c(=O)n2c1C(=O)N[C@]21CC[C@@](O)(C(F)(F)F)CC1` [Example 82, 1-{[(7S)-4-{[(cis)-4-Hydroxy-8′-methyl-1′,5′-dioxo-4-(trifluoromethyl)-1′,5′-dihydro-2′H-spiro[cyclohexane-1,3′-imidazo[1,5-a]pyridin]-6′-yl]amino}-5,6,7,8-tetrahydro[1]benzothieno[2,3-d]pyrimidin-7-yl]carbonyl}azetidine-3-carbonitrile], for which the IC50 – broadly, the concentration needed to halve the response being measured – was found to be 1.5 nM.
Take `Cc1cc(Nc2ncnc3sc4c(c23)CC[C@H](C(=O)N2CC[C@H](N(C)C)C2)C4)c(=O)n2c1C(=O)NC21CCCCC1` [Example 9, 6′-{[(7S)-7-{[(3S)-3-(Dimethylamino)pyrrolidin-1-yl]carbonyl}-5,6,7,8-tetrahydro[1]benzothieno[2,3-d]pyrimidin-4-yl]amino}-8′-methyl-2′H-spiro[cyclohexane-1,3′-imidazo[1,5-a]pyridine]-1′,5′-dione]: the IC50 came to 0.1 nM.
Consider `Cc1cc(Nc2ncnc3sc4c(c23)CC[C@H](C(=O)N(C)CCN(C)C)C4)c(=O)n2c1C(=O)NC21CCCCC1` [Example 12, (7S)—N-[2-(Dimethylamino)ethyl]-N-methyl-4-[(8′-methyl-1′,5′-dioxo-1′,5′-dihydro-2′H-spiro[cyclohexane-1,3′-imidazo[1,5-a]pyridin]-6′-yl)amino]-5,6,7,8-tetrahydro[1]benzothieno[2,3-d]pyrimidine-7-carboxamide], for which the IC50 is 0.2 nM.
As for `Cc1cc(Nc2ncnc3sc4c(c23)CC[C@H](C(=O)N2C[C@H]3C[C@@H]2CO3)C4)c(=O)n2c1C(=O)NC21CS(=O)(=O)C1` [Example 72, 8-Methyl-6-({(7S)-7-[(1R,4R)-2-oxa-5-azabicyclo[2.2.1]hept-5-ylcarbonyl]-5,6,7,8-tetrahydro[1]benzothieno[2,3-d]pyrimidin-4-yl}amino)-2H-spiro[imidazo[1,5-a]pyridine-3,3′-thietane]-1,5-dione 1′,1′-dioxide], the IC50 came to 0.7 nM.
Consider `C[C@@H]1COCCN1C(=O)[C@H]1CCc2c(sc3ncnc(Nc4cc(Cl)c5n(c4=O)C4(CCCC4)NC5=O)c23)C1` [Example 90, 8′-Chloro-6′-({(7S)-7-[(3R)-3-methylmorpholine-4-carbonyl]-5,6,7,8-tetrahydro[1]benzothieno[2,3-d]pyrimidin-4-yl}amino)-2′H-spiro[cyclopentane-1,3′-imidazo[1,5-a]pyridine]-1′,5′-dione], for which the IC50 was determined as 0.3 nM.
For `CC1(C)NC(=O)c2c(Cl)cc(Nc3ncnc4sc5c(c34)CC[C@H](C(=O)N3CC(C#N)C3)C5)c(=O)n21` [Example 113, 1-{(7S)-4-[(8-Chloro-3,3-dimethyl-1,5-dioxo-1,2,3,5-tetrahydroimidazo[1,5-a]pyridin-6-yl)amino]-5,6,7,8-tetrahydro[1]benzothieno[2,3-d]pyrimidine-7-carbonyl}azetidine-3-carbonitrile], the IC50 came out at 0.2 nM.
Then `Cc1cc(Nc2ncnc3sc4c(c23)CCCC4)c(=O)n2c1C(=O)NC21CCCCC1` [Example 43, 8′-Methyl-6′-(5,6,7,8-tetrahydro[1]benzothieno[2,3-d]pyrimidin-4-ylamino)-2′H-spiro[cyclohexane-1,3′-imidazo[1,5-a]pyridine]-1′,5′-dione], with 9.9 nM; and `Cc1cc(Nc2ncnc3sc4c(c23)CC[C@H](C(=O)N2CCN(C)[C@@H](C)C2)C4)c(=O)n2c1C(=O)NC21CCCCC1` [Example 14, 6′-{[(7S)-7-{[(3S)-3,4-Dimethylpiperazin-1-yl]carbonyl}-5,6,7,8-tetrahydro[1]benzothieno[2,3-d]pyrimidin-4-yl]amino}-8′-methyl-2′H-spiro[cyclohexane-1,3′-imidazo[1,5-a]pyridine]-1′,5′-dione], with 0.8 nM; and `Cc1cc(Nc2ncnc3sc4c(c23)CC[C@H](C(=O)N2CC(N(C)C)C2)C4)c(=O)n2c1C(=O)NC21CCC(F)(F)CC1` [Example 55, 6′-{[(7S)-7-{[3-(Dimethylamino)azetidin-1-yl]carbonyl}-5,6,7,8-tetrahydro[1]benzothieno[2,3-d]pyrimidin-4-yl]amino}-4,4-difluoro-8′-methyl-2′H-spiro[cyclohexane-1,3′-imidazo[1,5-a]pyridine]-1′,5′-dione], with 0.6 nM.
In the case of `O=C1NC2(CCC2)n2c1c(Cl)cc(Nc1ncnc3sc4c(c13)CC[C@H](C(=O)O)C4)c2=O` [Example 93, (7S)-4-[(8′-Chloro-1′,5′-dioxo-1′,5′-dihydro-2′H-spiro[cyclobutane-1,3′-imidazo[1,5-a]pyridin]-6′-yl)amino]-5,6,7,8-tetrahydro[1]benzothieno[2,3-d]pyrimidine-7-carboxylic acid], the IC50 stood at 1.3 nM.
With `Cc1cc(Nc2ncnc3sc4c(c23)CC[C@H](C(=O)N2C[C@H]3C[C@@H]2CO3)C4)c(=O)n2c1C(=O)NC21CCC(F)(F)CC1` [Example 58, 4,4-Difluoro-8′-methyl-6′-({(7S)-7-[(1R,4R)-2-oxa-5-azabicyclo[2.2.1]hept-5-ylcarbonyl]-5,6,7,8-tetrahydro[1]benzothieno[2,3-d]pyrimidin-4-yl}amino)-2′H-spiro[cyclohexane-1,3′-imidazo[1,5-a]pyridine]-1′,5′-dione], the IC50 is 0.5 nM.
In the case of `Cc1cc(Nc2ncnc3sc4c(c23)CC[C@H](C(=O)N(C)C)C4)c(=O)n2c1C(=O)NC21CCCC1` [Example 37, (7S)—N,N-Dimethyl-4-[(8′-methyl-1′,5′-dioxo-1′,5′-dihydro-2′H-spiro[cyclopentane-1,3′-imidazo[1,5-a]pyridin]-6′-yl)amino]-5,6,7,8-tetrahydro[1]benzothieno[2,3-d]pyrimidine-7-carboxamide], the concentration for half-maximal inhibition (IC50) came out at 0.7 nM.
For the compound `CN(C)[C@H]1CCN(C(=O)[C@H]2CCc3c(sc4ncnc(Nc5cc(Cl)c6n(c5=O)C5(CCCC5)NC6=O)c34)C2)C1` [Example 89, 8′-Chloro-6′-({(7S)-7-[(3S)-3-(dimethylamino)pyrrolidine-1-carbonyl]-5,6,7,8-tetrahydro[1]benzothieno[2,3-d]pyrimidin-4-yl}amino)-2′H-spiro[cyclopentane-1,3′-imidazo[1,5-a]pyridine]-1′,5′-dione], the IC50 is < 0.1 nM.
Regarding `NC(=O)[C@H]1CCc2c(sc3ncnc(Nc4cc(Cl)c5n(c4=O)C4(CSC4)NC5=O)c23)C1` [Example 119, (7S)-4-[(8-chloro-1,5-dioxo-1,5-dihydro-2H-spiro[imidazo[1,5-a]pyridine-3,3′-thietan]-6-yl)amino]-5,6,7,8-tetrahydro[1]benzothieno[2,3-d]pyrimidine-7-carboxamide], the IC50 came to 0.9 nM.
As for `Cc1cc(Nc2ncnc3sc4c(c23)CC[C@H](C(=O)N2CCOC[C@H]2C)C4)c(=O)n2c1C(=O)NC21CCCCC1` [Example 18, 8′-methyl-6′-{[(7S)-7-{[(3R)-3-methylmorpholin-4-yl]carbonyl}-5,6,7,8-tetrahydro[1]benzothieno[2,3-d]pyrimidin-4-yl]amino}-2′H-spiro[cyclohexane-1,3′-imidazo[1,5-a]pyridine]-1′,5′-dione], the IC50 is 0.3 nM.
Then `Cc1cc(Nc2ncnc3sc4c(c23)CC[C@H](C(=O)N2C[C@H]3C[C@@H]2CO3)C4)c(=O)n2c1C(=O)NC2(C)C` [Example 33, 3,3,8-Trimethyl-6-({(7S)-7-[(1R,4R)-2-oxa-5-azabicyclo[2.2.1]hept-5-ylcarbonyl]-5,6,7,8-tetrahydro[1]benzothieno[2,3-d]pyrimidin-4-yl}amino)-2,3-dihydroimidazo[1,5-a]pyridine-1,5-dione], with 0.8 nM.
For the compound `Cc1cc(Nc2ncnc3sc4c(c23)CC[C@H](C(=O)N2CC(C#N)C2)C4)c(=O)n2c1C(=O)NC21CCC1` [Example 22, 1-({(7S)-4-[(8′-Methyl-1′,5′-dioxo-1′,5′-dihydro-2′H-spiro[cyclobutane-1,3′-imidazo[1,5-a]pyridin]-6′-yl)amino]-5,6,7,8-tetrahydro[1]benzothieno[2,3-d]pyrimidin-7-yl}carbonyl)azetidine-3-carbonitrile], the IC50 is 0.5 nM.
Then `Cc1cc(Nc2ncnc3sc4c(c23)CC[C@H](C(=O)N2CC(C#N)C2)C4)c(=O)n2c1C(=O)NC21CCCC1` [Example 39, 1-({(7S)-4-[(8′-Methyl-1′,5′-dioxo-1′,5′-dihydro-2′H-spiro[cyclopentane-1,3′-imidazo[1,5-a]pyridin]-6′-yl)amino]-5,6,7,8-tetrahydro[1]benzothieno[2,3-d]pyrimidin-7-yl}carbonyl)azetidine-3-carbonitrile], with 3.3 nM; and `Cc1cc(Nc2ncnc3sc4c(c23)CC[C@H](C(=O)N(C)C)C4)c(=O)n2c1C(=O)NC21CCC(F)(F)CC1` [Example 52, (7S)-4-[(4,4-Difluoro-8′-methyl-1′,5′-dioxo-1′,5′-dihydro-2′H-spiro[cyclohexane-1,3′-imidazo[1,5-a]pyridin]-6′-yl)amino]-N,N-dimethyl-5,6,7,8-tetrahydro[1]benzothieno[2,3-d]pyrimidine-7-carboxamide], with 0.6 nM; and `Cc1cc(Nc2ncnc3sc4c(c23)CC[C@H](C(=O)N2C[C@H]3C[C@@H]2CO3)C4)c(=O)n2c1C(=O)NC21CCCC1` [Example 36, 8′-Methyl-6′-({(7S)-7-[(1R,4R)-2-oxa-5-azabicyclo[2.2.1]hept-5-ylcarbonyl]-5,6,7,8-tetrahydro[1]benzothieno[2,3-d]pyrimidin-4-yl}amino)-2′H-spiro[cyclopentane-1,3′-imidazo[1,5-a]pyridine]-1′,5′-dione], with 1.3 nM.
Take `Cc1cc(Nc2ncnc3sc4c(c23)CC[C@H](C(=O)N2C[C@H]3C[C@@H]2CO3)C4)c(=O)n2c1C(=O)NC21CSC1` [Example 51, 8-Methyl-6-({(7S)-7-[(1R,4R)-2-oxa-5-azabicyclo[2.2.1]hept-5-ylcarbonyl]-5,6,7,8-tetrahydro[1]benzothieno[2,3-d]pyrimidin-4-yl}amino)-2H-spiro[imidazo[1,5-a]pyridine-3,3′-thietane]-1,5-dione]: the IC50 is 0.4 nM.
